Results reported in article PMC5853558, “De novo identification of lipid II binding lipopeptides with antibacterial activity against vancomycin-resistant bacteria” (Chemical Science, 2017).
Read-outs that look alike come from different tables or passages of the source. *1 amine or outer side, *2 acyl side, *3 side chain or, on linkers, in order; H or OH if unused. Where a SMILES comes first, the peptide text is derived from it. Bridges are numbered along the chain shown (N, C = ends). [ ]: non-standard residue; d: D form. TBMB = c1c(C[*:1])cc(C[*:3])cc1C[*:2]

Experiments:
Assay in all cases: microbe, parasite or virus in culture
[1] = test system: M. luteus (NCTC2665); format: cell-based, Micrococcus luteus; details: for MIC of Ala scan of P8-D against M. luteus: Supplemental table S8, non-lipidated P8 variants, broth microdilution, highest tested 512 µg/ml; for MIC: Micrococcus luteus
Experimental: (§1) Section 4 Biological and biochemical experiments
(§2) 4.1 Minimum inhibitory concentration assay
(§3) MIC values were determined by using the broth microdilution method. Peptides were dissolved first in DMSO and diluted with broth so that the final peptide concentration was 1024 µg/ml and the DMSO concentration was 4%. Peptide serial dilutions were made in TSB in a polypropylene 96-wells plate using 50 µl volumes. An overnight culture of the organism of interest was diluted to and OD600 of 0.01 and grown until they reach 0.5. The culture was then diluted to 1 x 10^6 CFU/ml and 50 µl of this suspension was added to each well. The highest concentrations were then 512 µg/ml peptide and 2% DMSO. The plates were incubated at the preferred growth temperature of the organism that was used and 250 rpm. […] When […]
(§4) determining the MICs of the lipidated peptides, the lipopeptides were first dissolved in DMSO and diluted with TSB so that the peptide concentration was 128 µg/ml and the DMSO concentration was 4%. After inoculation the highest peptide concentration evaluated was 64 µg/ml and the DMSO concentration was 2%. A DMSO control was tested for each strain to ensure the DMSO did not affect the growth of the particular strain. […]

[2] = test system: E. faecium (VRE7391); format: cell-based, Enterococcus faecium; details: Enterococcus faecium, read-out: MIC E. faecium (VRE7391)
Experimental: as §1, §2, §3, §4

[3] = test system: E. faecium (E980); format: cell-based, Enterococcus faecium; details: Enterococcus faecium, read-out: MIC E. faecium (E980)
Experimental: as §1, §2, §3, §4

[4] = test system: E. faecium (VRE2297); format: cell-based, Enterococcus faecium; details: Enterococcus faecium, read-out: MIC E. faecium (VRE2297)
Experimental: as §1, §2, §3, §4

[5] = test system: E. faecium (VRE155); format: cell-based, Enterococcus faecium; details: Enterococcus faecium, read-out: MIC E. faecium (VRE155)
Experimental: as §1, §2, §3, §4

[6] = test system: E. faecium (VRE0321); format: cell-based, Enterococcus faecium; details: Enterococcus faecium, read-out: MIC E. faecium (VRE0321)
Experimental: as §1, §2, §3, §4

[7] = test system: B. subtilis (168); format: cell-based; details: Bacillus subtilis, read-out: MIC B. subtilis (168)
Experimental: as §1, §2, §3, §4

[8] = test system: S. epidermidis (1587); format: cell-based; details: Staphylococcus epidermidis, read-out: MIC S. epidermidis (1587)
Experimental: as §1, §2, §3, §4

[9] = test system: S. pyogenes (5448); format: cell-based; details: Streptococcus pyogenes, read-out: MIC S. pyogenes (5448)
Experimental: as §1, §2, §3, §4

Question: For CC(C)C[C@H]1NC(=O)[C@H](NC(=O)[C@@H](C)N)CSCc2cc3cc(c2)CSC[C@@H](NC(=O)[C@@H](CC(C)C)NC(=O)[C@@H](CC(C)C)NC(=O)[C@@H](CO)NC(=O)[C@@H](CCC(N)=O)NC(=O)[C@@H](CC(C)C)NC1=O)C(=O)N1CCC[C@@H]1C(=O)N[C@H](Cc1ccc(O)cc1)C(=O)N[C@H](C)C(=O)N[C@H]([C@H](C)O)C(=O)N[C@H](Cc1c[nH]cn1)C(=O)N[C@H](CCCNC(=N)N)C(=O)N[C@@H](C(=O)NCC(N)=O)CSC3 [Peptide P8-D-S12A] (H-[dA][dC][dL][dL][dQ][dS][dL][dL][dC][dP][dY][dA][dT][dH][dR][dC]G-NH2; linker 2-9-16 via TBMB; N-terminus assumed), which “MIC of Ala scan of P8-D against M. luteus” value (from here on “MIC of Ala scan of P8-D”) [1] is on record?
Answer: The value was 512 µg/mL.

Question: With CC(C)C[C@H]1NC(=O)[C@H](NC(=O)[C@@H](C)N)CSCc2cc3cc(c2)CSC[C@@H](NC(=O)[C@@H](CC(C)C)NC(=O)[C@@H](CC(C)C)NC(=O)[C@@H](CO)NC(=O)[C@@H](CCC(N)=O)NC(=O)[C@@H](CC(C)C)NC1=O)C(=O)N1CCC[C@@H]1C(=O)N[C@H](Cc1ccc(O)cc1)C(=O)N[C@H](CO)C(=O)N[C@H](C)C(=O)N[C@H](Cc1c[nH]cn1)C(=O)N[C@H](CCCNC(=N)N)C(=O)N[C@@H](C(=O)NCC(N)=O)CSC3 [Peptide P8-D-T13A] (H-[dA][dC][dL][dL][dQ][dS][dL][dL][dC][dP][dY][dS][dA][dH][dR][dC]G-NH2; linker 2-9-16 via TBMB; N-terminus assumed) as the molecule, how does the “MIC of Ala scan of P8-D” value [1] read?
Answer: Its value is 512 µg/mL.

Question: With CC(C)C[C@H]1NC(=O)[C@H](NC(=O)[C@@H](C)N)CSCc2cc3cc(c2)CSC[C@@H](NC(=O)[C@@H](CC(C)C)NC(=O)[C@@H](CC(C)C)NC(=O)[C@@H](CO)NC(=O)[C@@H](CCC(N)=O)NC(=O)[C@@H](CC(C)C)NC1=O)C(=O)N1CCC[C@@H]1C(=O)N[C@H](C)C(=O)N[C@H](CO)C(=O)N[C@H]([C@H](C)O)C(=O)N[C@H](Cc1c[nH]cn1)C(=O)N[C@H](CCCNC(=N)N)C(=O)N[C@@H](C(=O)NCC(N)=O)CSC3 [Peptide P8-D-Y11A] (H-[dA][dC][dL][dL][dQ][dS][dL][dL][dC][dP][dA][dS][dT][dH][dR][dC]G-NH2; linker 2-9-16 via TBMB; N-terminus assumed) as the molecule, how does the “MIC of Ala scan of P8-D” value [1] read?
Answer: Its value is 512 µg/mL.

Question: Which “MIC of Ala scan of P8-D” value [1] does the source give for CC(C)C[C@H]1NC(=O)[C@H](NC(=O)[C@@H](C)N)CSCc2cc3cc(c2)CSC[C@@H](NC(=O)[C@@H](CC(C)C)NC(=O)[C@@H](CC(C)C)NC(=O)[C@@H](CO)NC(=O)[C@@H](CCC(N)=O)NC(=O)[C@@H](CC(C)C)NC1=O)C(=O)N1CCC[C@@H]1C(=O)N[C@H](Cc1ccc(O)cc1)C(=O)N[C@H](CO)C(=O)N[C@H]([C@H](C)O)C(=O)N[C@H](Cc1c[nH]cn1)C(=O)N[C@H](CCCNC(=N)N)C(=O)N[C@@H](C(=O)NCC(N)=O)CSC3 [Peptide P8] (H-[dA][dC][dL][dL][dQ][dS][dL][dL][dC][dP][dY][dS][dT][dH][dR][dC]G-NH2; linker 2-9-16 via TBMB; N-terminus assumed) here?
Answer: Its value is 128 µg/mL.

Question: And the “MIC against M. luteus” value ([1]; Table 1, non-lipidated bicyclic peptides, broth microdilution in TSB, 16 h, read visually, n.a. = no activity, highest tested concentration 512 μg mL^–1)?
Answer: Its value is 64–128 μg mL^–1.

Question: CN[C@H](CC(C)C)C(=O)N[C@H]1C(=O)N[C@@H](CC(N)=O)C(=O)N[C@H]2C(=O)N[C@H]3C(=O)N[C@H](C(=O)N[C@H](C(=O)O)c4cc(O)cc(O)c4-c4cc3ccc4O)[C@H](O)c3ccc(c(Cl)c3)Oc3cc2cc(c3O[C@@H]2O[C@H](CO)[C@@H](O)[C@H](O)[C@H]2O[C@H]2C[C@](C)(N)[C@H](O)[C@H](C)O2)Oc2ccc(cc2Cl)[C@H]1O [Vancomycin] was tested. Which MIC ([2]; 16 h) did it give?
Answer: Its MIC is > 64 µg/mL.

Question: What about the MIC [2] of the same molecule?
Answer: Its MIC is > 44.2 µM.

Question: And the MIC ([3]; 16 h)?
Answer: Its MIC is < 1 µg/mL.

Question: What about the MIC [3] of the same molecule?
Answer: The MIC was < 0.7 µM.

Question: What about the MIC ([4]; 16 h) of the same molecule?
Answer: Its MIC is > 64 µg/mL.

Question: What about the MIC [4] of the same molecule?
Answer: The MIC was > 44.2 µM.

Question: What about the MIC ([5]; 16 h) of the same molecule?
Answer: The MIC was 64 µg/mL.

Question: What about the MIC [5] of the same molecule?
Answer: Its MIC is 44.2 µM.

Question: And the MIC ([6]; 16 h)?
Answer: Its MIC is > 64 µg/mL.

Question: And the MIC [6]?
Answer: Its MIC is > 44.2 µM.

Question: What about the MIC ([7]; 16 h) of the same molecule?
Answer: The MIC was < 1 µg/mL.

Question: What about the MIC [7] of the same molecule?
Answer: The MIC was < 0.7 µM.

Question: What about the MIC ([8]; 16 h) of the same molecule?
Answer: Its MIC is 2 µg/mL.

Question: What about the MIC [8] of the same molecule?
Answer: The MIC was 1.4 µM.

Question: What about the MIC ([9]; 16 h) of the same molecule?
Answer: Its MIC is < 1 µg/mL.

Question: What about the MIC [9] of the same molecule?
Answer: Its MIC is < 0.7 µM.

Question: What about the MIC ([1]; NCTC2665, 16 h, read-out: MIC M. luteus (NCTC2665)) of the same molecule?
Answer: Its MIC is < 1 µg/mL.

Question: What about the MIC ([1]; NCTC2665, read-out: MIC M. luteus (NCTC2665)) of the same molecule?
Answer: Its MIC is < 0.7 µM.
